Results taken from patent publication US12139499B2, “Heteroaryl compounds for treating Huntington's disease” (PTC THERAPEUTICS, INC., priority 2018, dated 2024).

Test system: Endogenous Huntingtin Protein
Test: Endogenous Huntingtin Protein Assay (ELISA-based MSD electrochemiluminescence)
Format: cell-based
Details: Table 1
Procedure: Compounds of Formula (I) or Formula (II) were tested using the Meso Scale Discovery (MSD) Assay provided in International Application No. PCT/US2016/066042, filed on Dec. 11, 2016 and claiming priority to U.S. Provisional Application 62/265,652 filed on Dec. 10, 2015, the entire contents of which are incorporated herein by reference.
The Endogenous Huntingtin Protein assay used in Example 1 was developed using the ELISA-based MSD electrochemiluminescence assay platform.
Endogenous Huntingtin Protein Assay
Meso Scale Discovery (MSD) 96-well or 384-well plates were coated overnight at 4° C. with MW1 (expanded polyglutamine) or MAB2166 monoclonal antibody (for capture) at a concentration of 1 μg/mL in PBS (30 μL per well). Plates were then washed three times with 300 μL wash buffer (0.05% Tween-20 in PBS) and blocked (100 μL blocking buffer; 5% BSA in PBS) for 4-5 hours at room temperature with rotational shaking and then washed three times with wash buffer.
Samples (25 μL) were transferred to the antibody-coated MSD plate and incubated overnight at 4° C. After removal of the lysates, the plate was washed three times with wash buffer, and 25 μL of #5656S (Cell signaling; rabbit monoclonal) secondary antibody (diluted to 0.25 μg/mL in 0.05% Tween-20 in blocking buffer) was added to each well and incubated with shaking for 1 Hour at room temperature. Following incubation with the secondary antibody, the wells were rinsed with wash buffer after which 25 μL of goat anti-rabbit SULFO TAG secondary detection antibody (required aspect of the MSD system) (diluted to 0.25 μg/mL in 0.05% Tween-20 in blocking buffer) was added to each well and incubated with shaking for 1 hour at room temperature. After rinsing three times with wash buffer, 150 μL of read buffer T with surfactant (MSD) were added to each empty well, and the plate was imaged on a SI 6000 imager (MSD) according to manufacturers' instructions provided for 96- or 384-well plates.

SMILES	IC50 [nM]
CN1CCC2(CC1)CN(c1nc3nnc(-c4ccc(-c5c[nH]nc5F)cc4O)cc3s1)C2 [Compound 392, 5-(3-fluoro-1H-pyrazol-4-yl)-2-[6-(7-methyl-2,7-diazaspiro[3.5]nonan-2-yl)[1,3]thiazolo[4,5-c]pyridazin-3-yl]phenol]	1000 to 3000
Oc1cc(-c2cn[nH]c2)ccc1-c1cc2sc(N3CCNCC3)nc2nn1 [Compound 334, 2-[6-(piperazin-1-yl)[1,3]thiazolo[4,5-c]pyridazin-3-yl]-5-(1H-pyrazol-4-yl)phenol]	100 to 500
Cc1cn2cc(-c3cc4sc(N(C)C5CC6(C)CCC(C)(C5)N6)nc4cn3)nc2c(C)n1 [Compound 322, N-[(1R,3s,5S)-1,5-dimethyl-8-azabicyclo[3.2.1]octan-3-yl]-6-(6,8-dimethylimidazo[1,2-a]pyrazin-2-yl)-N-methyl[1,3]thiazolo[4,5-c]pyridin-2-amine]	≤ 100
CN(c1nc2ccc(-c3cc(C#N)c4nn(C)cc4c3)nc2s1)C1CC2(C)CCC(C)(C1)N2 [Compound 293, 5-(2-{[(1R,3s,5S)-1,5-dimethyl-8-azabicyclo[3.2.1]octan-3-yl](methyl)amino}[1,3]thiazolo[5,4-b]pyridin-5-yl)-2-methyl-2H-indazole-7-carbonitrile]	≤ 100
Cc1nc2ccc(-c3cc4sc(N(C)C5CC(C)(C)NC(C)(C)C5)nc4cn3)cn2n1 [Compound 136, N-methyl-6-(2-methyl[1,2,4]triazolo[1,5-a]pyridin-6-yl)-N-(2,2,6,6-tetramethylpiperidin-4-yl)[1,3]thiazolo[4,5-c]pyridin-2-amine]	100 to 500
CN(c1nc2nnc(-c3ccc(-c4c[nH]nc4F)cc3O)cc2s1)C1CCNC1 (stereo not drawn) [Compound 387, 5-(3-fluoro-1H-pyrazol-4-yl)-2-[6-[methyl(pyrrolidin-3-yl)amino][1,3]thiazolo[4,5-c]pyridazin-3-yl}phenol]	≤ 100
Cn1cc2cc(-c3cc(F)c4nc(C5CCNCC5)sc4c3)ccc2n1 [Compound 73, 4-fluoro-6-(2-methyl-2H-indazol-5-yl)-2-(piperidin-4-yl)-1,3-benzothiazole]	≤ 100
CN(c1nc2ccc(-c3ccc(-c4cn[nH]c4)cc3O)nc2s1)C1CC(C)(C)NC(C)(C)C1 [Compound 149, 2-{2-[methyl(2,2,6,6-tetramethylpiperidin-4-yl)amino][1,3]thiazolo[5,4-b]pyridin-5-yl}-5-(1H-pyrazol-4-yl)phenol]	100 to 500
Cn1cc2cc(-c3ccc4nc(C5CCCNCC5)sc4c3)ccc2n1 (stereo not drawn) [Compound 42, 2-(azepan-4-yl)-6-(2-methyl-2H-indazol-5-yl)-1,3-benzothiazole]	100 to 500
Cn1cc2cc(-c3cc4sc(NC5CC(C)(C)NC(C)(C)C5)nc4cn3)cc(F)c2n1 [Compound 232, 6-(7-fluoro-2-methyl-2H-indazol-5-yl)-N-(2,2,6,6-tetramethylpiperidin-4-yl)[1,3]thiazolo[4,5-c]pyridin-2-amine]	≤ 100
Cc1cc(-c2cnc3nc(N(C)C4CC(C)(C)NC(C)(C)C4)sc3c2)cc2cn(C)nc12 [Compound 17, 6-(2,7-dimethyl-2H-indazol-5-yl)-N-methyl-N-(2,2,6,6-tetramethylpiperidin-4-yl)[1,3]thiazolo[4,5-b]pyridin-2-amine]	100 to 500
CN1CCC2(CC1)CCN2c1nc2nnc(-c3ccc(-c4cn[nH]c4)cc3O)cc2s1 [Compound 339, 2-[6-(7-methyl-1,7-diazaspiro[3.5]nonan-1-yl)[1,3]thiazolo[4,5-c]pyridazin-3-yl]-5-(1H-pyrazol-4-yl)phenol]	≤ 100
Cc1cn2cc(-c3ncc4nc(N(C)[C@H]5C[C@]6(C)CC[C@](C)(C5)N6)sc4n3)cc2c(C)n1 [Compound 323, N-[(1R,3s,5S)-1,5-dimethyl-8-azabicyclo[3.2.1]octan-3-yl]-5-(1,3-dimethylpyrrolo[1,2-a]pyrazin-7-yl)-N-methyl[1,3]thiazolo[5,4-d]pyrimidin-2-amine]	≤ 100
Cc1nc2c(C#N)cc(-c3ncc4nc(N(C)C5CC6(C)CC[C@](C)(C5)N6)sc4n3)cc2o1 (stereo partly drawn) [Compound 290, 6-(2-{[(1R)-1,5-dimethyl-8-azabicyclo[3.2.1]octan-3-yl](methyl)amino}[1,3]thiazolo[5,4-d]pyrimidin-5-yl)-2-methyl-1,3-benzoxazole-4-carbonitrile]	≤ 100
Cc1cn2cc(-c3cc4sc(N(C)C5CC(C)(C)NC(C)(C)C5)nc4nn3)cc(F)c2n1 [Compound 157, 3-(8-fluoro-2-methylimidazo[1,2-a]pyridin-6-yl)-N-methyl-N-(2,2,6,6-tetramethylpiperidin-4-yl)[1,3]thiazolo[4,5-c]pyridazin-6-amine]	≤ 100
Cc1cn2cc(-c3ncc4nc(N(C)C5C6CCC5CNC6)sc4n3)cc(C#N)c2n1 (stereo not drawn) [Compound 228, 6-{2-[(8-anti)-3-azabicyclo[3.2.1]oct-8-yl(methyl)amino][1,3]thiazolo[5,4-d]pyrimidin-5-yl}-2-methylimidazo[1,2-a]pyridine-8-carbonitrile]	500 to 1000
CN(c1nc2ncc(-c3ccc(-c4cn[nH]c4)cc3O)nc2s1)C1CCNCC1 [Compound 274, 2-{2-[methyl(piperidin-4-yl)amino][1,3]thiazolo[4,5-b]pyrazin-6-yl}-5-(1H-pyrazol-yl)phenol]	≤ 100
Cc1cn2cc(-c3ccc4nc(N(C)C5CC6(C)CCC(C)(C5)N6)sc4n3)cc(F)c2n1 [Compound 292, N-[(1R,3s,5S)-1,5-dimethyl-8-azabicyclo[3.2.1]octan-3-yl]-5-(8-fluoro-2-methylimidazo[1,2-a]pyridin-6-yl)-N-methyl[1,3]thiazolo[5,4-b]pyridin-2-amine]	≤ 100
CN1C[C@H](Nc2nc3nnc(-c4ccc(-c5cn[nH]c5)cc4O)cc3s2)[C@@H](F)C1 [Compound 342, 2-(6-{[(3S,4S)-4-fluoro-1-methylpyrrolidin-3-yl]amino}[1,3]thiazolo[4,5-c]pyridazin-3-yl)-5-(1H-pyrazol-4-yl)phenol]	100 to 500
CN(c1nc2cnc(-c3cc(F)c4nn(C)cc4c3)cc2s1)C1CC2(C)CCC(C)(C1)N2 [Compound 298, N-[(1R,3s,5S)-1,5-dimethyl-8-azabicyclo[3.2.1]octan-3-yl]-6-(7-fIuoro-2-methyl-2H-indazol-5-yl)-N-methyl[1,3]thiazolo[4,5-c]pyridin-2-amine]	≤ 100
Cc1cc(-c2cc(O)c3nc(C4CCNCC4)sc3c2)cc2cn(C)nc12 [Compound 134, 6-(2,7-dimethyl-2H-indazol-5-yl)-2-(piperidin-4-yl)-1,3-benzothiazol-4-ol]	100 to 500
Cn1cc2cc(-c3ccc4nc(C5(F)CCNCC5)sc4c3)ccc2n1 [Compound 41, 2-(4-fluoropiperidin-4-yl)-6-(2-methyl-2H-indazol-5-yl)-1,3-benzothiazole]	1000 to 3000
Cc1cc(-c2ccc3nc(N(C)C4CCNCC4)sc3n2)cc2cn(C)nc12 [Compound 36, 5-(2,7-dimethyl-2H-indazol-5-yl)-N-methyl-N-(piperidin-4-yl)[1,3]thiazolo[5,4-b]pyridin-2-amine]	100 to 500
Cc1cn2cc(-c3ccc4nc(C5CCNCC5)sc4c3)ncc2n1 [Compound 169, 2-methyl-6-[2-(piperidin-4-yl)-1,3-benzothiazol-6-yl]imidazo[1,2-a]pyrazine]	100 to 500
CN(c1nc2ccc(-c3ccc4nn(C)cc4c3)cc2s1)C1CC(C)(C)NC(C)(C)C1 [Compound 20, N-methyl-6-(2-methyl-2H-indazol-5-yl)-N-(2,2,6,6-tetramethylpiperidin-4-yl)-1,3-benzothiazol-2-amine]	≤ 100
Cc1cn2cc(-c3cc4sc(N(C)[C@H]5C[C@]6(C)CC[C@@](C)(N6)[C@H]5F)nc4cn3)cc(F)c2n1 [Compound 326]	≤ 100
CN1CC=C(c2ccc3nc(-c4ccc5nn(C)cc5c4)sc3c2)CC1 [Compound 6, 2-(2-methyl-2H-indazol-5-yl)-6-(1-methyl-1,2,3,6-tetrahydropyridin-4-yl)-1,3-benzothiazole]	1000 to 3000
CC[C@]12CC[C@](CC)(CC(N(C)c3nc4cnc(-c5cc(C#N)c6nc(C)cn6c5)nc4s3)C1)N2 (stereo partly drawn) [Compound 303, 6-(2-{[(1R,3r,5S)-1,5-diethyl-8-azabicyclo[3.2.1]octan-3-yl](methyl)amino}[1,3]thiazolo[5,4-d]pyrimidin-5-yl)-2-methylimidazo[1,2-a]pyridine-8-carbonitrile]	≤ 100
CN(c1nc2ccc(-c3cc(C#N)c4nn(C)cc4c3)cc2s1)C1CC(C)(C)NC(C)(C)C1 [Compound 62, 2-methyl-5-{2-[methyl(2,2,6,6-tetramethylpiperidin-4-yl)amino]-1,3-benzothiazol-6-yl}-2H-indazole-7-carbonitrile]	≤ 100
Cc1cn2cc(-c3ncc4nc(N(C)C5C[C@H]6CCC[C@@H](C5)N6)sc4n3)cc(F)c2n1 (stereo partly drawn) [Compound 257, N-[(1R,5S)-9-azabicyclo[3.3.1]non-3-yl]-5-(8-fluoro-2-methylimidazo[1,2-a]pyridin-6-yl)-N-methyl[1,3]thiazolo[5,4-d]pyrimidin-2-amine]	≤ 100
